Results from BindingDB's records for doi:10.1016/0960-894X(95)00111-6 (1995).

assay: Tested for competitive inhibitory activity against beta-Glucosidase

Compound | Ki [mM]
CO[C@@H]1O[C@@H](CO)[C@@H](Oc2cccnc2S[C@H]2[C@H](O)[C@H](O)[C@H](OC)O[C@H]2CO)[C@H](O)[C@@H]1O | 5.5
COC1OC(CO)C(Sc2nc(CO)ccc2O)C(O)C1O (stereo unspecified) [5-(3-Hydroxy-6-hydroxymethyl-pyridin-2-ylsulfanyl)-6-hydroxymethyl-2-methoxy-tetrahydro-pyran-3,4-diol] | 4
COC1OC(CO)C(Sc2nc(CN(C)C)ccc2O)C(O)C1O (stereo unspecified) [5-(6-Dimethylaminomethyl-3-hydroxy-pyridin-2-ylsulfanyl)-6-hydroxymethyl-2-methoxy-tetrahydro-pyran-3,4-diol] | 20

Results, then the compound that gave them:

Ki [mM] | Compound
8 | COC1OC(CO)C(Sc2ccccn2)C(O)C1O (stereo unspecified) [6-Hydroxymethyl-2-methoxy-5-(pyridin-2-ylsulfanyl)-tetrahydro-pyran-3,4-diol]
4.5 | COC1OC(CO)C(Sc2nc(C)ccc2O)C(O)C1O (stereo unspecified) [6-Hydroxymethyl-5-(3-hydroxy-6-methyl-pyridin-2-ylsulfanyl)-2-methoxy-tetrahydro-pyran-3,4-diol]
0.8 | COC1OC(CO)C(Sc2ncccc2O)C(O)C1O (stereo unspecified) [6-Hydroxymethyl-5-(3-hydroxy-pyridin-2-ylsulfanyl)-2-methoxy-tetrahydro-pyran-3,4-diol]
